According to ChEMBL document CHEMBL4483862, “Open-source discovery of chemical leads for next-generation chemoprotective antimalarials” (2018):

Tested on: Plasmodium berghei
Assay: Luciferase/luciferin-expressing antifolate-resistant parasites were used to infect a culture of HepG2 cells that were pre-incubated with compounds. Infected hepatocytes emit light due to the luciferase reaction. Assay results are presented as the percent inhibition of light emission compared to control. […]
Type: functional
Details: sporozoite; for IC90: read-out: LUCIFERASE INFECTION ASSAY - IC90

Row | Structure (SMILES) | IC90 [µM] | further results
1 | CC(=O)c1c(C)[nH]c(C(=O)Nc2ccc(C)c(S(=O)(=O)Nc3ccc(C)cc3C)c2)c1C | > 10 | IC50 (HEPG2TOX_HILL_SLOPE 7.64, HEPG2TOX_R_SQUARED 0.623, PBLUC_HILL_SLOPE 8.53, PBLUC_R_SQUARED 0.404, read-out: LUCIFERASE INFECTION ASSAY - IC50): 9.43 µM
2 | NC(Cc1ccccc1)c1csc(Nc2ccc(C(=O)c3ccccc3)cc2)n1 (configuration not stated) | 1.15 | IC50 (HEPG2TOX_HILL_SLOPE 7.62, HEPG2TOX_R_SQUARED 0.882, PBLUC_HILL_SLOPE 15.6, PBLUC_R_SQUARED 0.562, read-out: LUCIFERASE INFECTION ASSAY - IC50): 1 µM
3 | FC(F)(F)c1nc2ccccc2nc1N/N=C/c1ccc(Cl)cc1 | 9.28 | IC50 (HEPG2TOX_HILL_SLOPE 7.63, HEPG2TOX_R_SQUARED 0.926, PBLUC_HILL_SLOPE 14.9, PBLUC_R_SQUARED 0.207, read-out: LUCIFERASE INFECTION ASSAY - IC50): 8 µM
4 | CCC(C)(C)c1ccc(Oc2ccc(NC(=O)Nc3ccccc3OC)cc2)cc1 | 5.8 | IC50 (HEPG2TOX_HILL_SLOPE 7.52, 1.98, HEPG2TOX_R_SQUARED 0.307, 0.635, PBLUC_HILL_SLOPE 2.78, 0.762, PBLUC_R_SQUARED 0.525, 0.659, read-out: LUCIFERASE INFECTION ASSAY - IC50): 1.08 µM
5 | CCOC(=O)c1ccc(N2C(=O)c3ccccc3C(C=NNC(=O)Cc3ccc(F)cc3)C2=O)cc1 (configuration not stated) | > 10 | IC50 (HEPG2TOX_HILL_SLOPE 7.51, HEPG2TOX_R_SQUARED 0.875, PBLUC_HILL_SLOPE 2.71, PBLUC_R_SQUARED 0.377, read-out: LUCIFERASE INFECTION ASSAY - IC50): 8.78 µM
6 | CC(C)(C)c1ccc(-c2nnc(SCC(=O)Nc3sccc3C(N)=O)n2C2CCCC2)cc1 | > 10 | IC50 (HEPG2TOX_HILL_SLOPE 7.51, 0.572, HEPG2TOX_R_SQUARED 0.693, 0.490, PBLUC_HILL_SLOPE 1.93, PBLUC_R_SQUARED 0.568, read-out: LUCIFERASE INFECTION ASSAY - IC50): 4.92 µM
7 | COC(=O)c1cnc(Sc2ccc(C(F)(F)F)cn2)c([N+](=O)[O-])c1 | > 9.18 | IC50 (HEPG2TOX_HILL_SLOPE 7.53, HEPG2TOX_R_SQUARED 0.667, PBLUC_HILL_SLOPE 5.12, PBLUC_R_SQUARED 0.221, read-out: LUCIFERASE INFECTION ASSAY - IC50): > 9.18 µM
8 | CN1/C(=C\C(=O)CSc2nnc3c(n2)[nH]c2ccccc23)C(C)(C)c2ccccc21 | > 10 | IC50 (HEPG2TOX_HILL_SLOPE 7.55, HEPG2TOX_R_SQUARED 0.316, read-out: LUCIFERASE INFECTION ASSAY - IC50): > 10 µM
9 | COc1cc(-c2cnc3cnc(-c4ccccc4Cl)cn23)cc(OC)c1OC | > 8.34 | IC50 (HEPG2TOX_HILL_SLOPE 7.56, HEPG2TOX_R_SQUARED 0.703, PBLUC_HILL_SLOPE 2.2, PBLUC_R_SQUARED 0.686, read-out: LUCIFERASE INFECTION ASSAY - IC50): 6.11 µM
10 | Cc1cc(N2CCN(C(=O)c3cc(C4CC4)nn3-c3ccccc3)CC2)nc(C(C)C)n1 | > 10 | IC50 (HEPG2TOX_HILL_SLOPE 7.58, HEPG2TOX_R_SQUARED 0.717, PBLUC_HILL_SLOPE 1.92, PBLUC_R_SQUARED 0.299, read-out: LUCIFERASE INFECTION ASSAY - IC50): 4.83 µM
11 | Cc1c(C(=O)N2CCN(c3cc(C#N)ccn3)CC2)[nH]c2c1C(=O)CCC2 | > 10 | IC50 (HEPG2TOX_HILL_SLOPE 7.54, HEPG2TOX_R_SQUARED 0.56, read-out: LUCIFERASE INFECTION ASSAY - IC50): > 10 µM
12 | O=C(c1cccs1)N1CCN(Cc2csc(C3CCCCC3)n2)CC1 | > 10 | IC50 (HEPG2TOX_HILL_SLOPE 7.59, HEPG2TOX_R_SQUARED 0.857, PBLUC_HILL_SLOPE 2.36, PBLUC_R_SQUARED 0.0477, read-out: LUCIFERASE INFECTION ASSAY - IC50): 5.47 µM
13 | Cc1cc(C)c(S(=O)(=O)N(Cc2cccc3ccccc23)c2c(C)n(C)n(-c3ccccc3)c2=O)c(C)c1 | 9.71 | IC50 (HEPG2TOX_HILL_SLOPE 7.62, HEPG2TOX_R_SQUARED 0.586, PBLUC_HILL_SLOPE 20.2, PBLUC_R_SQUARED 0.47, read-out: LUCIFERASE INFECTION ASSAY - IC50): 8.71 µM
14 | Cc1cc(C)c(C)c(S(=O)(=O)N2CCC(C(=O)Nc3nnc(-c4ccccc4)o3)CC2)c1C | > 10 | IC50 (HEPG2TOX_HILL_SLOPE 7.53, HEPG2TOX_R_SQUARED 0.782, PBLUC_HILL_SLOPE 3.42, PBLUC_R_SQUARED 0.39, read-out: LUCIFERASE INFECTION ASSAY - IC50): 6.89 µM
15 | CCOC(=O)c1c(C)oc(-c2ccc(Cl)cc2)c1S(=O)(=O)Nc1cccc(C)c1 | > 7.61 | IC50 (HEPG2TOX_HILL_SLOPE 7.66, HEPG2TOX_R_SQUARED 0.177, read-out: LUCIFERASE INFECTION ASSAY - IC50): > 7.61 µM
16 | COCCNc1cc(C)nc2c(-c3ccc(C)cc3)c(C)nn12 | > 10.6 | IC50 (HEPG2TOX_HILL_SLOPE 7.65, HEPG2TOX_R_SQUARED 0.721, PBLUC_HILL_SLOPE 1.1, PBLUC_R_SQUARED 0.545, read-out: LUCIFERASE INFECTION ASSAY - IC50): 3.65 µM

Row | Structure (SMILES) | IC90 [µM] | further results
17 | COc1ccccc1-c1cc(-c2cccc(C(F)(F)F)c2)cnc1N | > 9.58 | IC50 (HEPG2TOX_HILL_SLOPE 7.68, HEPG2TOX_R_SQUARED 0.737, read-out: LUCIFERASE INFECTION ASSAY - IC50): > 9.58 µM
18 | COc1ccc(N2C(=O)C(=O)N(Cc3c(C)cc(C(C)(C)C)cc3C)C2=O)cc1 | 7.85 | IC50 (HEPG2TOX_HILL_SLOPE 7.7, HEPG2TOX_R_SQUARED 0.735, PBLUC_HILL_SLOPE 4.71, PBLUC_R_SQUARED 0.498, read-out: LUCIFERASE INFECTION ASSAY - IC50): 4.92 µM
19 | Cc1cccc(-n2cc(-c3ccccc3)c3c(N4CCN(C)CC4)ncnc32)c1 | > 10 | IC50 (HEPG2TOX_HILL_SLOPE 7.66, HEPG2TOX_R_SQUARED 0.38, PBLUC_HILL_SLOPE 2.7, PBLUC_R_SQUARED 0.572, read-out: LUCIFERASE INFECTION ASSAY - IC50): 6.64 µM
20 | CC(Sc1nnc(-c2ccc(C(C)(C)C)cc2)o1)C(=O)Nc1ncc(Cl)cc1Cl (configuration not stated) | 3.61 | IC50 (HEPG2TOX_HILL_SLOPE 7.53, HEPG2TOX_R_SQUARED 0.526, PBLUC_HILL_SLOPE 15.5, PBLUC_R_SQUARED 0.267, read-out: LUCIFERASE INFECTION ASSAY - IC50): 3.13 µM
21 | COc1cccc(Nc2nccc3nc(-c4ccc(F)c(F)c4)[nH]c23)c1 | > 10 | IC50 (HEPG2TOX_HILL_SLOPE 7.52, HEPG2TOX_R_SQUARED 0.793, PBLUC_HILL_SLOPE 2.32, PBLUC_R_SQUARED 0.606, read-out: LUCIFERASE INFECTION ASSAY - IC50): 4.06 µM
22 | Cc1cc(C(=O)CSc2nnc(C3CC3)[nH]2)c(C)n1-c1cccc(C(F)(F)F)c1 | > 10 | IC50 (HEPG2TOX_HILL_SLOPE 7.7, HEPG2TOX_R_SQUARED 0.0445, PBLUC_HILL_SLOPE 1.16, PBLUC_R_SQUARED 0.631, read-out: LUCIFERASE INFECTION ASSAY - IC50): 3.51 µM
23 | CCc1ccc2nc(NC(=O)c3nccnc3N)sc2c1 | > 10 | IC50 (HEPG2TOX_HILL_SLOPE 7.58, HEPG2TOX_R_SQUARED 0.761, PBLUC_HILL_SLOPE 15.5, PBLUC_R_SQUARED 0.446, read-out: LUCIFERASE INFECTION ASSAY - IC50): 9.33 µM
24 | O=C(Nc1cc(Cl)ccc1O)c1ccccc1CSc1ccc(Cl)cc1 | 7.79 | IC50 (HEPG2TOX_HILL_SLOPE 7.65, HEPG2TOX_R_SQUARED 0.733, PBLUC_HILL_SLOPE 11.9, PBLUC_R_SQUARED 0.0529, read-out: LUCIFERASE INFECTION ASSAY - IC50): 6.47 µM
25 | COc1ccc(N(Cc2c(C#N)c(C)nn2-c2ccccc2)S(=O)(=O)c2ccc(C)cc2)cc1 | > 10 | IC50 (HEPG2TOX_HILL_SLOPE 7.62, HEPG2TOX_R_SQUARED 0.552, PBLUC_HILL_SLOPE 10, PBLUC_R_SQUARED 0.432, read-out: LUCIFERASE INFECTION ASSAY - IC50): 9.18 µM
26 | COc1ccc(Nc2ccn3ncc(-c4ccc(N(C)C)cc4)c3n2)cn1 | 5.31 | IC50 (HEPG2TOX_HILL_SLOPE 7.66, HEPG2TOX_R_SQUARED 0.327, PBLUC_HILL_SLOPE 65.7, PBLUC_R_SQUARED 0.275, read-out: LUCIFERASE INFECTION ASSAY - IC50): 5.14 µM
27 | CCN(CC)c1ccc(/C=C(\C#N)C(=O)Nc2cccc(S(=O)(=O)N3CCCCC3)c2)cc1 | > 10 | IC50 (HEPG2TOX_HILL_SLOPE 7.51, HEPG2TOX_R_SQUARED 0.401, PBLUC_HILL_SLOPE 2.56, PBLUC_R_SQUARED 0.302, read-out: LUCIFERASE INFECTION ASSAY - IC50): 9.36 µM
28 | S=C(N/N=C/c1ccccn1)Nc1ccc(Cl)c(Cl)c1 | > 10.1 | IC50 (HEPG2TOX_HILL_SLOPE 7.56, HEPG2TOX_R_SQUARED 0.274, PBLUC_HILL_SLOPE 6.84, PBLUC_R_SQUARED 0.4, read-out: LUCIFERASE INFECTION ASSAY - IC50): 7.65 µM
29 | Cc1ccc(Nc2ncccc2C(=O)Nc2nc3ccccc3[nH]2)c(C)c1 | 7.9 | IC50 (HEPG2TOX_HILL_SLOPE 7.67, HEPG2TOX_R_SQUARED 0.775, PBLUC_HILL_SLOPE 5.03, PBLUC_R_SQUARED 0.402, read-out: LUCIFERASE INFECTION ASSAY - IC50): 5.1 µM
30 | Cc1cnc(NC(=O)c2ccc(N(C)C3CCCCC3)cc2)s1 | 0.327 | IC50 (HEPG2TOX_HILL_SLOPE 7.67, HEPG2TOX_R_SQUARED 0.65, PBLUC_HILL_SLOPE 1.69, PBLUC_R_SQUARED 0.349, read-out: LUCIFERASE INFECTION ASSAY - IC50): 0.0892 µM
31 | O=C(Nc1cc(S(=O)(=O)c2ccccc2)cs1)c1ccc(Cl)cc1 | 5.49 | IC50 (HEPG2TOX_HILL_SLOPE 7.57, HEPG2TOX_R_SQUARED 0.801, PBLUC_HILL_SLOPE 3.36, PBLUC_R_SQUARED 0.445, read-out: LUCIFERASE INFECTION ASSAY - IC50): 2.85 µM
